Reference: PubChem BioAssay (NCI)
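Each compound was tested at five concentrations against cells in 96-well plates for 48 hours. Definition used: TGI = concentration required for complete inhibition of growth.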 Peptide text beside a SMILES is read from it. * marks the point of attachment. Boc = CC(C)(C)OC(=O)*; OBn = c1ccc(CO*)cc1

Experiments:
Assay in all cases: NCI tumour cell line growth inhibition, 48 h
[1] = test system: 786-0 renal
[2] = test system: A549 NSCLC
[3] = test system: ACHN renal
[4] = test system: BT-549 breast
[5] = test system: CAKI-1 renal
[6] = test system: COLO 205 colon
[7] = test system: DU-145 prostate
[8] = test system: HCT-116 colon
[9] = test system: HCT-15 colon
[10] = test system: HL-60(TB) leukemia
[11] = test system: HOP-62 NSCLC
[12] = test system: HS 578T breast
[13] = test system: HT29 colon
[14] = test system: IGROV1 ovarian
[15] = test system: K-562 leukemia
[16] = test system: KM12 colon
[17] = test system: LOX IMVI melanoma
[18] = test system: M14 melanoma
[19] = test system: MCF7 breast
[20] = test system: MDA-MB-231 breast
[21] = test system: MDA-MB-435
[22] = test system: MDA-N
[23] = test system: MOLT-4 leukemia
[24] = test system: NCI-H226 lung
[25] = test system: NCI-H23 lung
[26] = test system: NCI-H460 lung
[27] = test system: NCI-H522 lung
[28] = test system: NCI/ADR-RES ovarian
[29] = test system: OVCAR-3 ovarian
[30] = test system: OVCAR-4 ovarian
[31] = test system: OVCAR-5 ovarian
[32] = test system: OVCAR-8 ovarian
[33] = test system: PC-3 prostate
[34] = test system: RPMI-8226 leukemia
[35] = test system: RXF 393 renal
[36] = test system: SF-268 CNS
[37] = test system: SF-295 CNS
[38] = test system: SF-539 CNS
[39] = test system: SK-MEL-2 melanoma
[40] = test system: SK-MEL-28 melanoma
[41] = test system: SK-MEL-5 melanoma
[42] = test system: SK-OV-3 ovarian
[43] = test system: SN12C renal
[44] = test system: SNB-19 CNS
[45] = test system: SNB-75 CNS
[46] = test system: SR leukemia
[47] = test system: SW-620 colon
[48] = test system: T-47D breast
[49] = test system: TK-10 renal
[50] = test system: U251 CNS
[51] = test system: UACC-257 melanoma
[52] = test system: UACC-62 melanoma
[53] = test system: UO-31 renal
[54] = test system: A498 renal
[55] = test system: CCRF-CEM leukemia
[56] = test system: EKVX NSCLC
[57] = test system: HCC-2998 colon
[58] = test system: HOP-92 NSCLC
[59] = test system: MALME-3M melanoma

In the case of `C/C(=N/O)c1cccc(Nc2nc3ccc(Cl)cc3c3[nH]c4ccccc4c23)c1`, the TGI [1] was 5.22 µM, the TGI [2] was 5.13 µM and the TGI [3] was 4.5 µM. For the same compound, the TGI [4] was 11.6 µM, the TGI [5] was 6.11 µM and the TGI [6] was 4.15 µM. For the same compound, the TGI [7] was 4.41 µM, the TGI [8] was 2.66 µM and the TGI [9] was 5.03 µM. For the same compound, the TGI [10] was 6.78 µM, the TGI [11] was 6.99 µM and the TGI [12] was 7.09 µM. It also gave a TGI [13] of 5.36 µM, a TGI [14] of 11.5 µM and a TGI [15] greater than 100 µM. The TGI [16] was 3.79 µM, the TGI [17] was 5.73 µM and the TGI [18] was 3.54 µM. For the same compound, the TGI [19] was 2.75 µM, the TGI [20] was 9.32 µM and the TGI [21] was 3.99 µM. The TGI [22] was 4.05 µM, the TGI [23] was 5.97 µM and the TGI [24] was 9.82 µM. The TGI [25] was 4.24 µM, the TGI [26] was 4.29 µM and the TGI [27] was 3.26 µM. The TGI [28] was 6.26 µM, the TGI [29] was 4.65 µM and the TGI [30] was 4.82 µM. For the same compound, the TGI [31] was 6.83 µM, the TGI [32] was 7.77 µM and the TGI [33] was 4.7 µM. It also gave a TGI [34] of 3.52 µM, a TGI [35] of 3.27 µM and a TGI [36] of 5.15 µM. For the same compound, the TGI [37] was 4.32 µM, the TGI [38] was 12.3 µM and the TGI [39] was 3.88 µM. It also gave a TGI [40] of 5.25 µM, a TGI [41] of 2.56 µM and a TGI [42] of 13.6 µM. For the same compound, the TGI [43] was 9.53 µM, the TGI [44] was 12 µM and the TGI [45] was 3.36 µM. The TGI [46] was greater than 100 µM, the TGI [47] was 5.03 µM and the TGI [48] was 3.5 µM. It also gave a TGI [49] of 6.51 µM, a TGI [50] of 9.94 µM and a TGI [51] of 12.1 µM. The TGI [52] was 3.94 µM and the TGI [53] was 8.86 µM.
`N#CC(Nc1ccccc1)c1ccc(C(C#N)Nc2ccccc2)cc1` (stereo not given) gave a TGI [1] greater than 100 µM, a TGI [54] greater than 100 µM and a TGI [2] greater than 100 µM. It also gave a TGI [3] greater than 100 µM, a TGI [4] greater than 100 µM and a TGI [5] greater than 100 µM. The TGI [55] was 48 µM, the TGI [6] was greater than 100 µM and the TGI [7] was greater than 100 µM. The TGI [56] was greater than 100 µM, the TGI [57] was greater than 100 µM and the TGI [8] was greater than 100 µM. The TGI [9] was greater than 100 µM, the TGI [10] was 34.3 µM and the TGI [58] was greater than 100 µM. The TGI [12] was greater than 100 µM, the TGI [13] was 80.9 µM and the TGI [14] was greater than 100 µM. For the same compound, the TGI [15] was greater than 100 µM, the TGI [16] was greater than 100 µM and the TGI [17] was greater than 100 µM. The TGI [18] was greater than 100 µM, the TGI [59] was greater than 100 µM and the TGI [19] was greater than 100 µM. The TGI [20] was greater than 100 µM, the TGI [21] was greater than 100 µM and the TGI [22] was greater than 100 µM. The TGI [23] was greater than 100 µM, the TGI [24] was greater than 100 µM and the TGI [25] was greater than 100 µM. It also gave a TGI [26] greater than 100 µM, a TGI [27] greater than 100 µM and a TGI [28] greater than 100 µM. The TGI [29] was greater than 100 µM, the TGI [30] was greater than 100 µM and the TGI [31] was greater than 100 µM. It also gave a TGI [32] greater than 100 µM, a TGI [33] greater than 100 µM and a TGI [35] greater than 100 µM. For the same compound, the TGI [36] was greater than 100 µM, the TGI [37] was greater than 100 µM and the TGI [38] was 69 µM. For the same compound, the TGI [39] was greater than 100 µM, the TGI [40] was greater than 100 µM and the TGI [41] was greater than 100 µM. The TGI [42] was greater than 100 µM, the TGI [43] was greater than 100 µM and the TGI [44] was greater than 100 µM. The TGI [47] was greater than 100 µM, the TGI [48] was greater than 100 µM and the TGI [49] was greater than 100 µM. For the same compound, the TGI [50] was greater than 100 µM, the TGI [51] was greater than 100 µM and the TGI [52] was greater than 100 µM. The TGI [53] was greater than 100 µM.
Work on `CC(NC(=O)CNC(=O)OC(C)(C)C)C(=O)NC(Cc1ccccc1)C(=O)OCc1ccccc1` (stereo not drawn) (Boc-Gly-Ala-Phe-OBn; configuration not given here) yielded a TGI [1] greater than 100 µM, a TGI [54] greater than 100 µM and a TGI [2] greater than 100 µM. The TGI [3] was greater than 100 µM, the TGI [4] was greater than 100 µM and the TGI [5] was greater than 100 µM. It also gave a TGI [55] greater than 100 µM, a TGI [6] greater than 100 µM and a TGI [7] greater than 100 µM. For the same compound, the TGI [56] was greater than 100 µM, the TGI [8] was greater than 100 µM and the TGI [9] was greater than 100 µM. It also gave a TGI [10] greater than 100 µM, a TGI [58] greater than 100 µM and a TGI [12] greater than 100 µM. The TGI [13] was greater than 100 µM, the TGI [14] was greater than 100 µM and the TGI [15] was greater than 100 µM. The TGI [16] was greater than 100 µM, the TGI [17] was greater than 100 µM and the TGI [18] was greater than 100 µM. It also gave a TGI [59] greater than 100 µM, a TGI [19] greater than 100 µM and a TGI [20] greater than 100 µM. For the same compound, the TGI [21] was greater than 100 µM, the TGI [22] was greater than 100 µM and the TGI [23] was greater than 100 µM. It also gave a TGI [24] greater than 100 µM, a TGI [25] greater than 100 µM and a TGI [27] greater than 100 µM. The TGI [28] was greater than 100 µM, the TGI [30] was greater than 100 µM and the TGI [31] was greater than 100 µM. For the same compound, the TGI [32] was greater than 100 µM, the TGI [33] was greater than 100 µM and the TGI [35] was greater than 100 µM. The TGI [36] was greater than 100 µM, the TGI [37] was greater than 100 µM and the TGI [38] was greater than 100 µM. For the same compound, the TGI [39] was greater than 100 µM, the TGI [40] was greater than 100 µM and the TGI [41] was greater than 100 µM. It also gave a TGI [42] greater than 100 µM, a TGI [43] greater than 100 µM and a TGI [44] greater than 100 µM. For the same compound, the TGI [45] was greater than 100 µM, the TGI [46] was greater than 100 µM and the TGI [47] was greater than 100 µM. For the same compound, the TGI [48] was greater than 100 µM, the TGI [49] was greater than 100 µM and the TGI [50] was greater than 100 µM. For the same compound, the TGI [51] was greater than 100 µM, the TGI [52] was greater than 100 µM and the TGI [53] was greater than 100 µM.
For `N#Cc1sc2c(c1OC(=O)c1cccs1)c(=O)n(-c1ccccc1)c(=S)n2-c1ccccc1`, the TGI [1] was 90.6 µM, the TGI [2] was greater than 100 µM and the TGI [4] was 77.8 µM. The TGI [5] was greater than 100 µM, the TGI [6] was 42.5 µM and the TGI [7] was greater than 100 µM. It also gave a TGI [56] of 89.9 µM, a TGI [8] of 34.2 µM and a TGI [9] of 40 µM. It also gave a TGI [10] of 47.5 µM, a TGI [11] of 49.5 µM and a TGI [12] of 43.6 µM. For the same compound, the TGI [13] was greater than 100 µM, the TGI [14] was 39.4 µM and the TGI [15] was 83.4 µM. The TGI [16] was 43.6 µM, the TGI [17] was 54.2 µM and the TGI [18] was 38.2 µM. For the same compound, the TGI [59] was 40.7 µM, the TGI [19] was 49.7 µM and the TGI [20] was 45.1 µM. For the same compound, the TGI [21] was greater than 100 µM, the TGI [22] was 68.5 µM and the TGI [23] was 62.3 µM. It also gave a TGI [24] of 43.4 µM, a TGI [25] of 93.5 µM and a TGI [26] greater than 100 µM. The TGI [27] was 34.3 µM, the TGI [28] was 50.1 µM and the TGI [29] was greater than 100 µM. It also gave a TGI [30] of 73.5 µM, a TGI [32] of 81.6 µM and a TGI [33] of 64.6 µM. The TGI [34] was 49.6 µM, the TGI [35] was 31.9 µM and the TGI [36] was 86 µM. The TGI [37] was 55.8 µM, the TGI [38] was 49.6 µM and the TGI [39] was 51 µM. For the same compound, the TGI [40] was 61.6 µM, the TGI [41] was 29.5 µM and the TGI [42] was greater than 100 µM. The TGI [43] was 47.2 µM, the TGI [44] was greater than 100 µM and the TGI [45] was greater than 100 µM. It also gave a TGI [46] of 71.4 µM, a TGI [47] of 84.6 µM and a TGI [48] of 34.1 µM. The TGI [49] was greater than 100 µM, the TGI [50] was 55.5 µM and the TGI [51] was greater than 100 µM. It also gave a TGI [52] of 35.2 µM and a TGI [53] of 32.7 µM.
